Laboratory results reported in ChEMBL document CHEMBL1201862, “PubChem BioAssay data set” (2004).
Active and inactive are the calls of the source.

Tested on: not listed separately
Experiment: fluconazole-exposed Candida albicans growth modulators – fluorescence, retest, confirmation (AID 2467)
Assay type: functional, cell-based
Conditions: not given

SMILES	EC50
Cn1ncc(Cl)c1C(=O)NNC(=O)Nc1cccc2ccccc12	> 38 µM (not active)
O=C1CCCC/C1=N\Nc1ccc(OCc2ccccc2)cc1	> 38 µM (not active)
O=S(=O)(Cc1ccccc1)N1CCc2ccccc21	1.56 µM (active)
C[n+]1c(-c2ccccc2)cc(-c2ccc(Cl)cc2)cc1-c1ccccc1.[O-][Cl+3]([O-])([O-])[O-]	0.756 µM (active)

Tested on: H9c2;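 also: confirmatory concentration-response retest of ultra-high-throughput screening hits for modulation of myocardial damage; cell death induced by hydrogen peroxide oxidative stress; compound pretreatment for 60 min then peroxide exposure for 2 h; potency is for protecting the cells against peroxide damage rather than for killing them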
Experiment: cells
Assay type: functional, cell-based
Conditions: Rattus norvegicus, H9c2, Myocardium

SMILES	IC50
NC(=O)c1ccc(NC(=O)COc2cccc3c2CCNC3=O)cc1	> 79 µM (inactive)
O=C(CSc1nc(O)c2ccccc2n1)N1CCCCCC1	33 µM (inactive)
COc1cc(-n2c(=O)c3ccccc3n(Cc3cc(=O)n4ccccc4n3)c2=O)cc(OC)c1OC	18.7 µM (active)
COc1ccc(C(=O)Nc2cccc(/C(C)=N/NC(=O)c3ccc([N+](=O)[O-])c(C)c3)c2)cc1OC	> 79 µM (inactive)
CCN(CC)CCn1c2c(c(SCC(=O)Nc3cccc(C(C)=O)c3)nc1=O)CCCC2	> 79 µM (inactive)
CC(=O)Nc1cc(-c2ccc(C(=O)N3CCOCC3)cc2)cn2c(-c3ccc(C(C)=O)cc3)cnc12	> 79 µM (inactive)
O=C(COC(=O)Cc1nnc(O)c2ccccc12)NNC(=O)c1ccc(Br)cc1	> 79 µM (inactive)
O=C(CNC(=O)c1[nH]cnc1C(=O)NCc1ccccc1)OCc1ccccc1	40.4 µM (inactive)
Cc1ccc(OCC(=O)NCc2nnc(O)c3ccccc23)cc1	> 79 µM (inactive)
N#C/C(=C\c1ccc(-c2cccc([N+](=O)[O-])c2)o1)C(=O)NCCN1CCOCC1	> 79 µM (inactive)

Target: T1, Replicative DNA helicase DnaB (Mycobacterium tuberculosis, UniProt P9WMR3)
T1 sequence (P9WMR3 whole entry): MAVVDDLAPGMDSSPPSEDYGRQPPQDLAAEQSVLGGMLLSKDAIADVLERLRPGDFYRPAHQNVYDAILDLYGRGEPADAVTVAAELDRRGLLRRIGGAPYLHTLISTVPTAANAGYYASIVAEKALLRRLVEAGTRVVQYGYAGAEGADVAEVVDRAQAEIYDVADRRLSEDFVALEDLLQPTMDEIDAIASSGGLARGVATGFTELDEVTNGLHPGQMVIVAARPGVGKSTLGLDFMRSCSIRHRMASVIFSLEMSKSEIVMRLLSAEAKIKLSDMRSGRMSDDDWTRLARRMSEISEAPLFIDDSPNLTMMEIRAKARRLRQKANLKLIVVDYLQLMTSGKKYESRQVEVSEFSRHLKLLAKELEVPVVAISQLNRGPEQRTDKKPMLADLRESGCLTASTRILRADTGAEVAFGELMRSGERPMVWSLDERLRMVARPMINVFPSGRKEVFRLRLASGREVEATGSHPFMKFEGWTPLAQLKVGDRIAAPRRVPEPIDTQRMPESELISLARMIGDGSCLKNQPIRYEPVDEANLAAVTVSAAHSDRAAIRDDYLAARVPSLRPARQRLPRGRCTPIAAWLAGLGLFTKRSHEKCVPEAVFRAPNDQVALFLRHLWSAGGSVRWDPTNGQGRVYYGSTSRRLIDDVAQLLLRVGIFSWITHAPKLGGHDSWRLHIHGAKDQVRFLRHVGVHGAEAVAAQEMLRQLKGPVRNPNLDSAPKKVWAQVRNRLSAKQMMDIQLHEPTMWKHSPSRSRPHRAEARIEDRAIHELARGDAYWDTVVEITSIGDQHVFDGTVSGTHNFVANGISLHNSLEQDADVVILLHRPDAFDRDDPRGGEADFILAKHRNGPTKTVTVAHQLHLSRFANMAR
Experiment: DnaB intein splicing inhibitors, dose response, biochemical, cell-free fluorescence (AID 449749)
Assay type: functional
Conditions: not given

SMILES	AC50
CC(Nc1c[nH]c(=O)[nH]c1=O)c1ccccc1 (stereo not drawn)	23.9 µM (active)
CCCc1n[nH]c2c1C(c1ccc(OC(=O)N3CCOCC3)cc1)C(C#N)=C(N)O2 (stereo not drawn)	23.5 µM (active)
O=[N+]([O-])c1ccc(N2CCOCC2)c2ccncc12	> 380 µM (inactive)
COc1ccc(/C=C/C(=O)c2ccccc2)cc1COc1ccc(F)cc1	17.1 µM (active)
N#C/C(=C\c1c(F)cccc1Cl)c1nn(-c2ccccc2)c(-n2cccc2)c1C#N	28.9 µM (active)
COc1ccc(C2NC(c3ccc(OC)cc3OC)C(C)C(=O)C2C)c(OC)c1 (stereo not drawn)	> 380 µM (inactive)

Tested on: not listed separately
Experiment: Luminescence Cell-Based Dose Retest to Confirm Inhibitors of Cancer Stem Cells. [Related pubchem assays (depositor defined):AID2717, AID2721]
Assay type: functional
Conditions: Homo sapiens

SMILES	AC50
N#C/C(=C\c1c(F)cccc1Cl)c1nn(-c2ccccc2)c(-n2cccc2)c1C#N	0.966 µM (active)

Target: T2, Protein RecA (Mycobacterium tuberculosis, UniProt P9WHJ3)
T2 sequence (P9WHJ3 whole entry): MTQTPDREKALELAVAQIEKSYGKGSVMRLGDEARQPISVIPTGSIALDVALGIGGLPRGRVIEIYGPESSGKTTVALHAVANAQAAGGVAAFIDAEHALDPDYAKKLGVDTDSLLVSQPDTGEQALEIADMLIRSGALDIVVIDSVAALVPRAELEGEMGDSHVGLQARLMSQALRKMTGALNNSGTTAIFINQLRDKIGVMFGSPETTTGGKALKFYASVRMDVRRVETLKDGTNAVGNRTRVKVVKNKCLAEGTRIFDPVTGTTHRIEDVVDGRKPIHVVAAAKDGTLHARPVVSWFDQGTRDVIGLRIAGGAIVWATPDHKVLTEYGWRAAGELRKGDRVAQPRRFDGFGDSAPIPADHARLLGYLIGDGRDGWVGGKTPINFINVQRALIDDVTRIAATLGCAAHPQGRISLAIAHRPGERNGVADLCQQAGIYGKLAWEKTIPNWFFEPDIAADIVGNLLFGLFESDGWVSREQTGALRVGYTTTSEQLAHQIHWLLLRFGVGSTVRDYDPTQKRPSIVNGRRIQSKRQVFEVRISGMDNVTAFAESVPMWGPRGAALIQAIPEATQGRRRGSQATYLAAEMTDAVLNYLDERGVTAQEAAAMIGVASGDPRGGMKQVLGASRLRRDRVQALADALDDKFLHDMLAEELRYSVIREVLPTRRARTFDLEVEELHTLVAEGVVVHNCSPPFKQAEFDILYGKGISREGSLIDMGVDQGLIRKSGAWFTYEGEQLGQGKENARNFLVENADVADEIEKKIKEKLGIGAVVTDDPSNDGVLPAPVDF
Experiment: Fluorescence Cell-Free Homogeneous Dose Retest to Identify Inhibitors of RecA-Intein Splicing Activity. [Related pubchem assays (depositor defined):AID2097, AID2223, AID489010, AID492950]
Assay type: functional
Conditions: not given

SMILES	EC50
CC(Nc1c[nH]c(=O)[nH]c1=O)c1ccccc1 (stereo not drawn)	15.5 µM (active)
CCCc1n[nH]c2c1C(c1ccc(OC(=O)N3CCOCC3)cc1)C(C#N)=C(N)O2 (stereo not drawn)	11.8 µM (active)
O=[N+]([O-])c1ccc(N2CCOCC2)c2ccncc12	12.2 µM (active)
COc1ccc(/C=C/C(=O)c2ccccc2)cc1COc1ccc(F)cc1	37.2 µM (active)
N#C/C(=C\c1c(F)cccc1Cl)c1nn(-c2ccccc2)c(-n2cccc2)c1C#N	1.34 µM (inconclusive)
COc1ccc(C2NC(c3ccc(OC)cc3OC)C(C)C(=O)C2C)c(OC)c1 (stereo not drawn)	> 380 µM (inactive)

Tested on: not listed separately
Experiment: viability of uninfected HEp-2 cells – cell-based, HTS, cytotoxicity control for RSV inhibitor project, dose response (AID 2410)
Assay type: functional
Conditions: human respiratory syncytial virus

SMILES	CC50
N#C/C(=C\c1c(F)cccc1Cl)c1nn(-c2ccccc2)c(-n2cccc2)c1C#N	> 50 µM (active)

Tested on: not listed separately
Experiment: NIH-3T3 fibroblast cytotoxicity, dose response, cytotoxicity control, cell-based, fluorescence, Alamar Blue, secondary assay (AID 2327);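 also: NIH-3T3 mouse fibroblasts cultured with fluconazole at 8 µg/mL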
Assay type: functional
Conditions: not given

SMILES	EC50
Cn1ncc(Cl)c1C(=O)NNC(=O)Nc1cccc2ccccc12	> 160 µM (inactive)
O=C1CCCC/C1=N\Nc1ccc(OCc2ccccc2)cc1	> 160 µM (inconclusive)
O=S(=O)(Cc1ccccc1)N1CCc2ccccc21	> 160 µM (inactive)
C[n+]1c(-c2ccccc2)cc(-c2ccc(Cl)cc2)cc1-c1ccccc1.[O-][Cl+3]([O-])([O-])[O-]	> 160 µM (inconclusive)

Target: T3, Rac GTPase-activating protein 1 (Homo sapiens, UniProt Q9H0H5)
T3 sequence (Q9H0H5 whole entry): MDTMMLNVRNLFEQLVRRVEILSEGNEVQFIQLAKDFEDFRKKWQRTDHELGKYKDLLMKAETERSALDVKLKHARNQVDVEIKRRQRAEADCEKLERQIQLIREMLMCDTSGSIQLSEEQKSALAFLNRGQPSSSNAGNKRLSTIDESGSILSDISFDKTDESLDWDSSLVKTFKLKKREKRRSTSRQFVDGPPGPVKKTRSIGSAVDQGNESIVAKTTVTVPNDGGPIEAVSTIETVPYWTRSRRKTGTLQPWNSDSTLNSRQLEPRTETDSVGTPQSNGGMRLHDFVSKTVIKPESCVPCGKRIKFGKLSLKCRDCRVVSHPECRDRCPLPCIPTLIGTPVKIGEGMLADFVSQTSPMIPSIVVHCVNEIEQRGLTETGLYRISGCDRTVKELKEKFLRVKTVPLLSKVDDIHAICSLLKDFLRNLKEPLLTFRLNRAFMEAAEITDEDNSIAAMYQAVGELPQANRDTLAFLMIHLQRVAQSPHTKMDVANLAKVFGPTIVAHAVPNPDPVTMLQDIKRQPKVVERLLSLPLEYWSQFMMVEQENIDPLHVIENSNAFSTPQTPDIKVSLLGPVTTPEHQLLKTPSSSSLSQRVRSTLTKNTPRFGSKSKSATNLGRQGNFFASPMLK
Experiment: blockers of MgcRacGAP-driven Rac1 GTP hydrolysis – biochemical, ADP Hunter fluorescence, primary and confirmatory, confirmation (AID 624330)
Assay type: functional
Conditions: not given

SMILES	IC50
COc1ccc(C2NC(c3ccc(OC)cc3OC)C(C)C(=O)C2C)c(OC)c1 (stereo not drawn)	116 µM (active)
